ChEMBL document CHEMBL5678818, “Discovery of potent SOS1 inhibitors that block RAS activation via disruption of the RAS-SOS1 interaction” (Proc Natl Acad Sci U S A, 2019)

Experiments:
[1] = target: Serine/threonine-protein kinase 25 (Homo sapiens) (UniProt O00506); experiment: Inhibition of YSK1 (unknown origin) assessed as residual activity at 1000 nM by KINOMEscan analysis relative to control
[2] = target: T1, Mitogen-activated protein kinase 12 (Homo sapiens) (UniProt P53778); experiment: Inhibition of p38-gamma (unknown origin) assessed as residual activity at 1000 nM by KINOMEscan analysis relative to control
T1 sequence (whole entry): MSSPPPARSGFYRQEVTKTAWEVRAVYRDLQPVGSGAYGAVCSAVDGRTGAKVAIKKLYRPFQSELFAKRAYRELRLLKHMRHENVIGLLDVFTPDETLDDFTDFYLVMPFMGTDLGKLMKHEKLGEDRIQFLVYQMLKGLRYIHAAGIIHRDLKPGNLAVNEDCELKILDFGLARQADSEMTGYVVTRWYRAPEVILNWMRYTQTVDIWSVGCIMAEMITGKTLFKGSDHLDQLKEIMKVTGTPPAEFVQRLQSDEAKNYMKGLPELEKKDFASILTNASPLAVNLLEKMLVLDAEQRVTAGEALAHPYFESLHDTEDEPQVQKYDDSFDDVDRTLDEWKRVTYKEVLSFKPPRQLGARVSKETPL

[3] = target: T2, Bone morphogenetic protein receptor type-2 (Homo sapiens) (UniProt Q13873); experiment: Inhibition of BMPR2 (unknown origin) assessed as residual activity at 1000 nM by KINOMEscan analysis relative to control
T2 sequence (whole entry): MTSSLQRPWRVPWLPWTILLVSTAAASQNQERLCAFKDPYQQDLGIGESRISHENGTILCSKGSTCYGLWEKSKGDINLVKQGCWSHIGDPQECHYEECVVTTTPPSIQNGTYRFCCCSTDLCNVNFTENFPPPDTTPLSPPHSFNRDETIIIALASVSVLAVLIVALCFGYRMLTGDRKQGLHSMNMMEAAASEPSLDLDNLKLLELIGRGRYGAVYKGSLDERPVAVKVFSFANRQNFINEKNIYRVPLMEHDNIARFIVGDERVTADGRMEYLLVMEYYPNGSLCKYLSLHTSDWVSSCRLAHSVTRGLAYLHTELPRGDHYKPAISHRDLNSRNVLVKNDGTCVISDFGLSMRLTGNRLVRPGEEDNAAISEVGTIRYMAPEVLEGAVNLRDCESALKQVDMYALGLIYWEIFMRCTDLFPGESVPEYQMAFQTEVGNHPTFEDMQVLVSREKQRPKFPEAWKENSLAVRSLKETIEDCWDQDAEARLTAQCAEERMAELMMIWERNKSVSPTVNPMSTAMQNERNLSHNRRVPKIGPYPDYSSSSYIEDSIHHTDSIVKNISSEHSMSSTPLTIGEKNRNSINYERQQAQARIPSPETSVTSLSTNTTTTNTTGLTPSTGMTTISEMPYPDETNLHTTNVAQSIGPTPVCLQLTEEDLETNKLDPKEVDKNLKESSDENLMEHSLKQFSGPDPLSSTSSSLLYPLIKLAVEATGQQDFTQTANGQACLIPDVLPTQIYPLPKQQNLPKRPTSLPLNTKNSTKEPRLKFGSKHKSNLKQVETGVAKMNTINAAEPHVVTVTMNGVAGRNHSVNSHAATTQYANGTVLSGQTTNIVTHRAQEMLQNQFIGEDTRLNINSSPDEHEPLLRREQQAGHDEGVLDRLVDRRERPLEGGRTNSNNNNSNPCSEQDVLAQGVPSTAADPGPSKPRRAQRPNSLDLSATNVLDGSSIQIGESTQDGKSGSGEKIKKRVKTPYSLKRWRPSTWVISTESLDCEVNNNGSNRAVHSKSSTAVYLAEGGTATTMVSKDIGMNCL

[4] = target: Tyrosine-protein kinase Fyn (Homo sapiens) (UniProt P06241); experiment: Inhibition of FYN (unknown origin) assessed as residual activity at 1000 nM by KINOMEscan analysis relative to control
Chain of Tyrosine-protein kinase Fyn (Homo sapiens) (P06241 2-537 limits assumed): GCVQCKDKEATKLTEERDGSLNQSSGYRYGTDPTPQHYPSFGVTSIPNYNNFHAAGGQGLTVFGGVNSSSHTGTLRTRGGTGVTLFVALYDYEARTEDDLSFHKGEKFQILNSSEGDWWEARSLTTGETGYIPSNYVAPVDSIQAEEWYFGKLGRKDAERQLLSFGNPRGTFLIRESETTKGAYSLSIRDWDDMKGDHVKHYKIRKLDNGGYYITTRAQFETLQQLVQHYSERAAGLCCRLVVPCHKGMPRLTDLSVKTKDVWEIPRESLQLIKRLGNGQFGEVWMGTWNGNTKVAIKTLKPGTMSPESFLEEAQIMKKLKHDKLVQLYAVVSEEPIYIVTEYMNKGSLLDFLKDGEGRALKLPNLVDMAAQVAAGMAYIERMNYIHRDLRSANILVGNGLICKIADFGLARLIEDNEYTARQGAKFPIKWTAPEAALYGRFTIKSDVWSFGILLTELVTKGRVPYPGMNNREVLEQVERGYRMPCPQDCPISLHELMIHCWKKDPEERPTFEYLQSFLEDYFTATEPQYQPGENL

[5] = target: cAMP-dependent protein kinase catalytic subunit alpha (Homo sapiens) (UniProt P17612); experiment: Inhibition of PKAC-alpha (unknown origin) assessed as residual activity at 1000 nM by KINOMEscan analysis relative to control
[6] = target: T3, Ephrin type-B receptor 2 (Homo sapiens) (UniProt P29323); experiment: Inhibition of EPHB2 (unknown origin) assessed as residual activity at 1000 nM by KINOMEscan analysis relative to control
T3 sequence (whole entry): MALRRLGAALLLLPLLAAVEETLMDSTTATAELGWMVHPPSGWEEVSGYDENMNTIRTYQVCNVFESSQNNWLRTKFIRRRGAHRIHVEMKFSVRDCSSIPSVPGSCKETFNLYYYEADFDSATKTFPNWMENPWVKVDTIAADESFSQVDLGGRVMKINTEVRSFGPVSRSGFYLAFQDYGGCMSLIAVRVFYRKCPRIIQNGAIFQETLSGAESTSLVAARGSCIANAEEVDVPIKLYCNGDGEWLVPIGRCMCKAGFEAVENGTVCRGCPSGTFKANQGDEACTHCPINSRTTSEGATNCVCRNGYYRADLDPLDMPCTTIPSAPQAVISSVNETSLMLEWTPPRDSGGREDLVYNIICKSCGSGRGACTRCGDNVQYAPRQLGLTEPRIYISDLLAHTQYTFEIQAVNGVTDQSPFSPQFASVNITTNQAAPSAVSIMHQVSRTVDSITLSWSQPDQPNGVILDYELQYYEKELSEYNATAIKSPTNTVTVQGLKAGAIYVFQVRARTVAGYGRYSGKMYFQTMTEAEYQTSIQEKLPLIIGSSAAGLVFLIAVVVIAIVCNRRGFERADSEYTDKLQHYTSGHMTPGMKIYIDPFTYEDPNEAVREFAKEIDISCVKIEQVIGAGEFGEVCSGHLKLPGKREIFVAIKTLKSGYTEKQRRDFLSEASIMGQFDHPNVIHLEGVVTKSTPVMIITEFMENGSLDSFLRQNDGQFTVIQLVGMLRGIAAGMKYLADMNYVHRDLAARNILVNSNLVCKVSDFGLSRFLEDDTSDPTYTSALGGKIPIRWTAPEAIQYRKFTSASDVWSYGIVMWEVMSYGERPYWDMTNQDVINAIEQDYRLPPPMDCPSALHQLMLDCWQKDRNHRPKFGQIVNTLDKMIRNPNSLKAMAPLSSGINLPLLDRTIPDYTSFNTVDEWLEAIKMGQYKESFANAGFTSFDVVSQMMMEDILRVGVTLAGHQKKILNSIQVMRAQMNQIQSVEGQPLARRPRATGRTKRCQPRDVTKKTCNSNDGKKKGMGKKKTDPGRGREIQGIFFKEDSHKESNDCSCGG

[7] = target: RAF proto-oncogene serine/threonine-protein kinase (Homo sapiens) (UniProt P04049); experiment: Inhibition of RAF1 (unknown origin) assessed as residual activity at 1000 nM by KINOMEscan analysis relative to control
Chain of RAF proto-oncogene serine/threonine-protein kinase (Homo sapiens) (P04049 whole entry): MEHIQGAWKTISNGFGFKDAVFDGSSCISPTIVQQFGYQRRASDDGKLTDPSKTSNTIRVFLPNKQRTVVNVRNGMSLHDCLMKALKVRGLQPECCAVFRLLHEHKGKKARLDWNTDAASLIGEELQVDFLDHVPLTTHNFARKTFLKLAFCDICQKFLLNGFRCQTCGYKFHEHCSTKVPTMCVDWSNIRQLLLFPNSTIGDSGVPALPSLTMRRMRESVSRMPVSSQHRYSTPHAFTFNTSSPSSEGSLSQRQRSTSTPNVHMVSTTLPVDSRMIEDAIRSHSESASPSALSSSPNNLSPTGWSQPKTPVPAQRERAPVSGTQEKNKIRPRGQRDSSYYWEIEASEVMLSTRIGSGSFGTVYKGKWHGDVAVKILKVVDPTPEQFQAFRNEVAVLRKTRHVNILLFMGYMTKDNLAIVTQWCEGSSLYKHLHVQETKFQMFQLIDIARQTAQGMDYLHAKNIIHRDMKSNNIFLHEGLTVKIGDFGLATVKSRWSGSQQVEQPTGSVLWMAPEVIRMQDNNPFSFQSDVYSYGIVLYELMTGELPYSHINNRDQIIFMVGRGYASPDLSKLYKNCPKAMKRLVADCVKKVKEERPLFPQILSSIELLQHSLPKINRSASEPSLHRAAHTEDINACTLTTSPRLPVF

[8] = target: Receptor tyrosine-protein kinase erbB-3 (Homo sapiens) (UniProt P21860); experiment: Inhibition of ERBB3 (unknown origin) assessed as residual activity at 1000 nM by KINOMEscan analysis relative to control
Chain of Receptor tyrosine-protein kinase erbB-3 (Homo sapiens) (P21860 whole entry): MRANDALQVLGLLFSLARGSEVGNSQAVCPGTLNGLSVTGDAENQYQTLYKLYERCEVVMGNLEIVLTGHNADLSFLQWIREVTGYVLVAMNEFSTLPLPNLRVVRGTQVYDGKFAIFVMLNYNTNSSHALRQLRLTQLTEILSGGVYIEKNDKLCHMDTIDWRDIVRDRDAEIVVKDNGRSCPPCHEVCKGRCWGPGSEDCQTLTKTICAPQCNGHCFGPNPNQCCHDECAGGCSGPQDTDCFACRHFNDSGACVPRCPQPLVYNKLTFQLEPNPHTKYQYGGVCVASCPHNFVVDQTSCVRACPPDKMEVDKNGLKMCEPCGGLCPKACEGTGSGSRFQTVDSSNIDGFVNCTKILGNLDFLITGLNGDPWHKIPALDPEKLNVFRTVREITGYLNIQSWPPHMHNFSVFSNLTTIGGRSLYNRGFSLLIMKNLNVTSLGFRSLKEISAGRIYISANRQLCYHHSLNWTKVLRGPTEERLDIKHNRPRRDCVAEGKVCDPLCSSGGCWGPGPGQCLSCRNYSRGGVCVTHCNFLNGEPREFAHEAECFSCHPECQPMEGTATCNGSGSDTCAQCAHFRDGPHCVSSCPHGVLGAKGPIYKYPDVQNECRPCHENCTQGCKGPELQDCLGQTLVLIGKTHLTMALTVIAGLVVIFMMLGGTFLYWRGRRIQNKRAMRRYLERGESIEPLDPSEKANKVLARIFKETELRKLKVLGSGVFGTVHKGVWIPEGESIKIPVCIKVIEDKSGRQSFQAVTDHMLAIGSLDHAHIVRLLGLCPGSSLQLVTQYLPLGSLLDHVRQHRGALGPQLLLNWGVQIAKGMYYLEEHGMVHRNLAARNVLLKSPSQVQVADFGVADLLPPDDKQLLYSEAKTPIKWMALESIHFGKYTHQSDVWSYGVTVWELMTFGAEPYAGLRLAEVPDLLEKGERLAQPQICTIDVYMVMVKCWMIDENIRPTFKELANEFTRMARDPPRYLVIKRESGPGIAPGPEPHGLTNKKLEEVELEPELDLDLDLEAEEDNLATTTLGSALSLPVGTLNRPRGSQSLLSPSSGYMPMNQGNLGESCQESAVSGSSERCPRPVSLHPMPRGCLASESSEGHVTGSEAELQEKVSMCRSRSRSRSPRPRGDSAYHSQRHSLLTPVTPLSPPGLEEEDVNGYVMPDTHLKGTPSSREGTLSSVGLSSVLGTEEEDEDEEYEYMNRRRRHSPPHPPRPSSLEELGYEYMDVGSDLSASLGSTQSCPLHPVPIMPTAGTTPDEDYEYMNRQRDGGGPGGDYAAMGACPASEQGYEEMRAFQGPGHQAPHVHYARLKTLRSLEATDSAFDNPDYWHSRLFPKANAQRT

Chain of Serine/threonine-protein kinase 25 (Homo sapiens) (O00506 whole entry, looked up): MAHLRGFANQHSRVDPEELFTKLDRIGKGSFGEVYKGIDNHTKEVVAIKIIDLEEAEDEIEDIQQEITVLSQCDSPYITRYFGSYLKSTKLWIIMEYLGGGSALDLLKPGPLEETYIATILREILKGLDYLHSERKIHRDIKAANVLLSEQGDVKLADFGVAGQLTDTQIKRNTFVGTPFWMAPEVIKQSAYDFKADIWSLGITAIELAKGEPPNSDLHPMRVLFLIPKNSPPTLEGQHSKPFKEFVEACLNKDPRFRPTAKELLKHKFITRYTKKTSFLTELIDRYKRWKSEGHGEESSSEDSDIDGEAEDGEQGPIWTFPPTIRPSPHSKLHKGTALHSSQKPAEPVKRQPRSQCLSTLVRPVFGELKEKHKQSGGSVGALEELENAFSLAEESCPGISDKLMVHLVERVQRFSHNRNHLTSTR

Row | SMILES | Activity [1] | Activity [2] | Activity [3] | Activity [4] | Activity [5] | Activity [6] | Activity [7] | Activity [8]
1 | COc1cc2ncnc(N[C@H](C)c3cccc4ccccc34)c2cc1OC | 100% | 91% | 89% | 100% | 95% | 94% | 94% | 92%
2 | COc1cc2nc(C)nc(N[C@H](C)c3cccc(-c4cn[nH]c4)c3)c2cc1OC | 99% | 52% | 83% | 72% | 97% | 98% | 100% | 96%
